Results as given in patent US20210392890A1, “COMPOSITIONS COMPRISING PYRIDINE CARBOXYLATE HERBICIDES AND PLANT GROWTH REGULATORS” (Corteva Agriscience LLC, priority 2018, published 2021).
“And” between values parts separate entries of the source, which are not always exact repeats. Identical values can stand only once. Like-named read-outs stand apart in the source and are kept apart here.

Legend:
Format in all cases: in vivo
[1] = test system: Amaranthus retroflexus (pigweed); test: Greenhouse postemergence herbicidal effect on AMARE; details: for Herbicidal Effects (% visual injury) AMARE Obs: Ethephon 0 g/ha
Source text: (§1) Seeds of the desired test plant species were planted in a 90:10% v/v (volume/volume) mixture of PRO-MIX® BX (Premier Tech Horticulture, Quakertown, Pa., USA) and PROFILE® GREENS GRADE™ (Profile Products LLC, Buffalo Grove, Ill., USA) planting mixture, which typically has a pH of 5.2 to 6.2 and an organic matter content of at least 50 percent, in plastic pots with a surface area of 103.2 square centimeters (cm^2). In some aspects, to help ensure good germination and healthy plants, a fungicide treatment and/or other chemical or physical treatment was applied. The plants were grown for 7-36 days (d) in a greenhouse with an approximate 14-hour (h) photoperiod which was maintained at about 23° C. during the day and 22° C. during the night. Nutrients and water were added on a regular basis and supplemental lighting was provided with overhead metal halide 1000-Watt lamps as necessary. The plants were employed for testing when they reached the second or third true leaf stage.
(§2) Emulsifiable concentrates of each of each pyridine carboxylate herbicide (Compound A or Compound B) were prepared at 100 grams acid equivalent per liter (g ae/L). The emulsifiable concentrates also included a safener, cloquintocet-mexyl, at 120 grams active ingredient per liter (g ai/L). An aliquot of each emulsifiable concentrate was placed in a 25 mL glass vial and diluted with an aqueous mixture of 1.25% (v/v) ACTIROB® B esterified rapeseed oil (Bayer Crop Science, Research Triangle Park, N.C., USA) or MSO® Concentrate with LECI-TECH® methylated soybean oil (Loveland Products, Loveland, Colo., USA) to obtain concentrated stock solutions at the highest application rate for each herbicide, based upon a 12 milliliter (mL) application volume at a rate of 187 liters per hectare (L/ha). The concentrated stock solutions were further diluted with an aqueous mixture of 1.25% v/v ACTIROB® B or MSO® Concentrate with LECI-TECH® to obtain stock solutions at reduced application rates for each herbicide. Spray solutions of the herbicide combinations (Compound A or Compound B plus the PGR) were prepared by adding weighed amounts or aliquots of the PGR to the stock solutions of Compound A or Compound B to form 12-mL spray solutions in two-way combinations.
(§3) The spray solutions were applied to the plant material with an overhead Mandel track sprayer equipped with 8002E nozzles calibrated to deliver 187 L/ha over an application area of 0.503 square meters (m^2) at a spray height of 18 inches (43 centimeters (cm)) above the average plant canopy. Control plants were sprayed in the same manner with the solvent blank. All pyridine carboxylate herbicide (component a) application rates are given as “g ae/ha” and all PGR (component b) application rates are given as “g ai/ha.”
(§4) The treated plants and control plants were placed in a greenhouse as described above and watered by sub-irrigation to prevent wash-off of the test compounds. After 20-22 d, the condition of the test plants as compared with that of the control plants was determined visually and scored on a scale of 0 to 100 percent where 0 corresponds to no injury and 100 corresponds to complete kill.

[2] = test system: Veronica hederifolia (ivy-leaved speedwell); test: Greenhouse postemergence herbicidal effect on VERHE
Source text: as §1
(§5) Emulsifiable concentrates of each of each pyridine carboxylate herbicide (Compound A or Compound B) were prepared at 100 grams acid equivalent per liter (g ae/L). The emulsifiable concentrates also included a safener, cloquintocet-mexyl, at 120 grams active ingredient per liter (g ai/L). […]
as §4

[3] = test system: Helianthus annuus (common sunflower); test: Greenhouse postemergence herbicidal effect on HELAN; details: for Herbicidal Effects (% visual injury) HELAN Obs: Ethephon 0 g/ha
Source text: as §1, §2, §3, §4

[4] = test system: Digitaria sanguinalis (large crabgrass); test: Greenhouse postemergence herbicidal effect on DIGSA; details: Ethephon 0 g/ha
Source text: as §1, §5
as §4, with “kill. […]” for “kill.”

[5] = test system: Echinochloa crus-galli (barnyard grass); test: Greenhouse postemergence herbicidal effect on ECHCG; details: Ethephon 0 g/ha
Source text: as §1, §5
as §4, with “kill. […]” for “kill.”

[6] = test system: Sinapis arvensis (wild mustard); test: Greenhouse postemergence herbicidal effect on SINAR
Source text: as §1, §5, §4

[7] = test system: Papaver rhoeas (common poppy); test: Greenhouse postemergence herbicidal effect on PAPRH
Source text: as §1, §5, §4

Glycine max (soybean) = test: Greenhouse postemergence herbicidal effect on GLXMA
Source text: as §1, §2, §3, §4

[8] = test system: Viola tricolor (wild pansy); test: Greenhouse postemergence herbicidal effect on VIOTR; details: for Herbicidal Effects (% visual injury) VIOTR Obs: Ethephon 0 g/ha
Source text: as §1, §2, §3, §4

[9] = test system: Abutilon theophrasti (velvetleaf); test: Greenhouse postemergence herbicidal effect on ABUTH; details: for Herbicidal Effects (% visual injury) ABUTH Obs: Ethephon 0 g/ha
Source text: as §1, §2, §3, §4

[10] = test system: Euphorbia heterophylla (poinsettia); test: Greenhouse postemergence herbicidal effect on EPHHL; details: for Herbicidal Effects (% visual injury) EPHHL Obs: Ethephon 0 g/ha
Source text: as §1, §2, §3, §4

[11] = test system: Sorghum vulgare (grain sorghum); details: for Herbicidal Effects (% visual injury) SORVU Obs: Ethephon 0 g/ha
Source text: as §1, §2, §3, §4

[12] = test system: Hordeum vulgare (spring barley)
Source text: as §1, §2, §3, §4

[13] = test system: Triticum aestivum (winter wheat)
Source text: as §1, §2, §3, §4

[14] = test system: Hordeum vulgare (winter barley)
Source text: as §1, §2, §3, §4

Zea mays (maize) = details: for Herbicidal Effects (% visual injury) ZEAMX Obs: Ethephon 0 g/ha
Source text: as §1, §2, §3, §4

[15] = test system: Triticum aestivum (spring wheat)
Source text: as §1, §2, §3, §4

## N#CCOC(=O)c1nc(-c2ccc3cc[nH]c3c2F)c(F)c(N)c1Cl [Compound A, cyanomethyl 4-amino-3-chloro-5-fluoro-6-(7-fluoro-1H-indol-6-yl)pyridine-2-carboxylate]
[1]; Compound A 7.5 g/ha
  Herbicidal Effects (% visual injury) AMARE Obs: 99%
[1]; Compound A 10 g/ha
  Herbicidal Effects (% visual injury) AMARE Obs: 100%
[1]; herbicide 7.5 g ae/ha alone
  % visual injury Obs: 80% and 88%
[1]; herbicide 10 g ae/ha alone
  % visual injury Obs: 85% and 88%
[2]; herbicide 7.5 g ae/ha alone
  % visual injury Obs: 68%
[2]; herbicide 10 g ae/ha alone
  % visual injury Obs: 73%
[2]; herbicide 15 g ae/ha alone
  % visual injury Obs: 75%
[3]; Compound A 7.5 g/ha
  Herbicidal Effects (% visual injury) HELAN Obs: 100%
[3]; Compound A 10 g/ha
  Herbicidal Effects (% visual injury) HELAN Obs: 93%
[3]; herbicide 7.5 g ae/ha alone
  % visual injury Obs: 83% and 90%
[3]; herbicide 10 g ae/ha alone
  % visual injury Obs: 88% and 89%
[4]; Compound A 7.5 g/ha
  Herbicidal Effects (% visual injury) DIGSA Obs: 10%
[4]; Compound A 10 g/ha
  Herbicidal Effects (% visual injury) DIGSA Obs: 10%
[5]; Compound A 7.5 g/ha
  Herbicidal Effects (% visual injury) ECHCG Obs: 90%
[5]; Compound A 10 g/ha
  Herbicidal Effects (% visual injury) ECHCG Obs: 94%
[6]; herbicide 7.5 g ae/ha alone
  % visual injury Obs: 88%
[6]; herbicide 10 g ae/ha alone
  % visual injury Obs: 91%
[6]; herbicide 15 g ae/ha alone
  % visual injury Obs: 91%
[7]; herbicide 7.5 g ae/ha alone
  % visual injury Obs: 100%
[7]; herbicide 10 g ae/ha alone
  % visual injury Obs: 99%
[7]; herbicide 15 g ae/ha alone
  % visual injury Obs: 100%
Glycine max (soybean); herbicide 7.5 g ae/ha alone
  % visual injury Obs: 100% and 80%
Glycine max (soybean); herbicide 10 g ae/ha alone
  % visual injury Obs: 99% and 90%
[8]; Compound A 7.5 g/ha
  Herbicidal Effects (% visual injury) VIOTR Obs: 13%
[8]; Compound A 10 g/ha
  Herbicidal Effects (% visual injury) VIOTR Obs: 20%
[8]; herbicide 15 g ae/ha alone
  % visual injury Obs: 15%
[9]; Compound A 7.5 g/ha
  Herbicidal Effects (% visual injury) ABUTH Obs: 73%
[9]; Compound A 10 g/ha
  Herbicidal Effects (% visual injury) ABUTH Obs: 85%
[9]; herbicide 7.5 g ae/ha alone
  % visual injury Obs: 40% and 68%
[9]; herbicide 10 g ae/ha alone
  % visual injury Obs: 48% and 80%
[10]; Compound A 7.5 g/ha
  Herbicidal Effects (% visual injury) EPHHL Obs: 100%
[10]; Compound A 10 g/ha
  Herbicidal Effects (% visual injury) EPHHL Obs: 100%
[10]; herbicide 7.5 g ae/ha alone
  % visual injury Obs: 91%
[10]; herbicide 10 g ae/ha alone
  % visual injury Obs: 83%
[11]; Compound A 7.5 g/ha
  Herbicidal Effects (% visual injury) SORVU Obs: 8%
[11]; Compound A 10 g/ha
  Herbicidal Effects (% visual injury) SORVU Obs: 8%
[11]; herbicide 7.5 g ae/ha alone
  % visual injury Obs: 0%
[11]; herbicide 10 g ae/ha alone
  % visual injury Obs: 0%
[12]; herbicide 7.5 g ae/ha alone
  % visual injury Obs: 0%
[12]; herbicide 10 g ae/ha alone
  % visual injury Obs: 0%
[12]; herbicide 15 g ae/ha alone
  % visual injury Obs: 0%
[13]; herbicide 7.5 g ae/ha alone
  % visual injury Obs: 0%
[13]; herbicide 10 g ae/ha alone
  % visual injury Obs: 0%
[13]; herbicide 15 g ae/ha alone
  % visual injury Obs: 0%
[14]; herbicide 7.5 g ae/ha alone
  % visual injury Obs: 0%
[14]; herbicide 10 g ae/ha alone
  % visual injury Obs: 0%
[14]; herbicide 15 g ae/ha alone
  % visual injury Obs: 0%
Zea mays (maize); Compound A 7.5 g/ha
  Herbicidal Effects (% visual injury) ZEAMX Obs: 0%
Zea mays (maize); Compound A 10 g/ha
  Herbicidal Effects (% visual injury) ZEAMX Obs: 5%
Zea mays (maize); herbicide 7.5 g ae/ha alone
  % visual injury Obs: 0%
Zea mays (maize); herbicide 10 g ae/ha alone
  % visual injury Obs: 0%
[15]; herbicide 7.5 g ae/ha alone
  % visual injury Obs: 0% and 5%
[15]; herbicide 10 g ae/ha alone
  % visual injury Obs: 0% and 3%
[15]; herbicide 15 g ae/ha alone
  % visual injury Obs: 0%
